Results from ChEMBL document CHEMBL5143592, “Angiogenesis-Inhibitory Piperidine Alkaloids from the Leaves of Microcos paniculata” (J Nat Prod, 2022).

Key:
[1] = Cytotoxicity against HUVEC cells assessed as cell viability incubated for 24 hrs by MTT assay; assay type: toxicity, cell-based; settings: human, read-out: Activity
HUVEC = assay: Anti-angiogenesis activity against HUVEC cells assessed as inhibition of tube formation at 2.5 to 20 uM measured after 3 hrs by fluorescence microscopic analysis; assay type: functional, cell-based; settings: Homo sapiens, dose 2.5-20 µM, DDE = dose-dependent effect

In the case of `CCCC[C@@H](O)[C@H](O)/C=C/C=C/[C@@H]1CC[C@@H](O)[C@H](C)N1`, the viability at 24 h [1] is reported as at least 90% and the Activity (HUVEC) is reported as “Dde”.
